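Each compound was tested at five concentrations against cells in 96-well plates for 48 hours. The concentration for full growth arrest is given as TGI.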
How the values were obtained:
Assay in all cases: NCI-60 cell line screen, 48 h
[1] = test system: SN12C renal
[2] = test system: SF-295 CNS
[3] = test system: BT-549 breast
[4] = test system: UO-31 renal
[5] = test system: CAKI-1 renal
[6] = test system: SK-MEL-2 melanoma
[7] = test system: RPMI-8226 leukemia
[8] = test system: KM12 colon
[9] = test system: SK-MEL-5 melanoma
[10] = test system: PC-3 prostate
[11] = test system: MDA-MB-435
[12] = test system: SK-MEL-28 melanoma
[13] = test system: OVCAR-4 ovarian
[14] = test system: UACC-257 melanoma
[15] = test system: RXF 393 renal
[16] = test system: IGROV1 ovarian
[17] = test system: SNB-19 CNS
[18] = test system: 786-0 renal
[19] = test system: A549 NSCLC
[20] = test system: K-562 leukemia
[21] = test system: A498 renal
[22] = test system: MALME-3M melanoma
[23] = test system: TK-10 renal
[24] = test system: SK-OV-3 ovarian
[25] = test system: MCF7 breast
[26] = test system: NCI-H460 lung
[27] = test system: HCT-15 colon
[28] = test system: U251 CNS
[29] = test system: SW-620 colon
[30] = test system: HT29 colon
[31] = test system: SF-539 CNS
[32] = test system: MOLT-4 leukemia
[33] = test system: NCI-H226 lung
[34] = test system: HOP-62 NSCLC
[35] = test system: NCI-H522 lung
[36] = test system: NCI-H23 lung
[37] = test system: HOP-92 NSCLC
[38] = test system: HCT-116 colon
[39] = test system: SNB-75 CNS
[40] = test system: NCI/ADR-RES ovarian
[41] = test system: UACC-62 melanoma
[42] = test system: MDA-MB-231 breast
[43] = test system: OVCAR-8 ovarian
[44] = test system: ACHN renal
[45] = test system: EKVX NSCLC
[46] = test system: COLO 205 colon
[47] = test system: SF-268 CNS
[48] = test system: T-47D breast
[49] = test system: DU-145 prostate
[50] = test system: MDA-N
[51] = test system: M14 melanoma
[52] = test system: HCC-2998 colon
[53] = test system: OVCAR-5 ovarian
[54] = test system: OVCAR-3 ovarian
[55] = test system: SR leukemia
[56] = test system: LOX IMVI melanoma
[57] = test system: HL-60(TB) leukemia
[58] = test system: CCRF-CEM leukemia
[59] = test system: HS 578T breast

## O=C(CCCCCCCCC(=O)NN1C(=O)/C(=C\c2ccc(O)c(O)c2)SC1c1ccc(Cl)cc1)NN1C(=O)/C(=C\c2ccc(O)c(O)c2)SC1c1ccc(Cl)cc1 (stereo not drawn)
[1]
  TGI: > 100 µM
[2]
  TGI: 48.1 µM
[3]
  TGI: > 100 µM
[4]
  TGI: > 55 µM
[5]
  TGI: > 88.1 µM
[6]
  TGI: > 61.8 µM
[7]
  TGI: > 31.6 µM
[8]
  TGI: > 100 µM
[9]
  TGI: > 100 µM
[10]
  TGI: > 100 µM
[11]
  TGI: > 100 µM
[12]
  TGI: > 100 µM
[13]
  TGI: > 100 µM
[14]
  TGI: > 100 µM
[15]
  TGI: 46.2 µM
[16]
  TGI: > 29.5 µM
[17]
  TGI: > 53.1 µM
[18]
  TGI: 34.4 µM
[19]
  TGI: > 76.8 µM
[20]
  TGI: > 75.9 µM
[21]
  TGI: 69 µM
[22]
  TGI: > 100 µM
[23]
  TGI: > 100 µM
[24]
  TGI: > 90.9 µM
[25]
  TGI: > 100 µM
[26]
  TGI: > 100 µM
[27]
  TGI: > 100 µM
[28]
  TGI: > 55.1 µM
[29]
  TGI: > 100 µM
[30]
  TGI: > 100 µM
[31]
  TGI: 43.8 µM
[32]
  TGI: 15.3 µM
[33]
  TGI: > 100 µM
[34]
  TGI: 31.5 µM
[35]
  TGI: 32.5 µM
[36]
  TGI: 41.8 µM
[37]
  TGI: 43.8 µM
[38]
  TGI: > 100 µM
[39]
  TGI: > 100 µM
[40]
  TGI: > 100 µM
[41]
  TGI: 60.2 µM
[42]
  TGI: > 100 µM
[43]
  TGI: 34 µM
[44]
  TGI: 71.8 µM
[45]
  TGI: > 100 µM
[46]
  TGI: > 100 µM
[47]
  TGI: > 62.7 µM
[48]
  TGI: > 100 µM
[49]
  TGI: 81.1 µM
[50]
  TGI: > 100 µM
[51]
  TGI: > 100 µM
[52]
  TGI: > 100 µM
[53]
  TGI: > 100 µM
[54]
  TGI: > 100 µM
[55]
  TGI: 28.3 µM
[56]
  TGI: 57.6 µM

## CCOP(=O)(OCC)/C(C#N)=C/c1cnc(-c2ccccc2)[nH]1
[57]
  TGI: > 100 µM
[1]
  TGI: > 100 µM
[2]
  TGI: > 100 µM
[3]
  TGI: > 100 µM
[4]
  TGI: > 100 µM
[5]
  TGI: > 100 µM
[6]
  TGI: > 100 µM
[7]
  TGI: > 100 µM
[8]
  TGI: > 100 µM
[9]
  TGI: > 100 µM
[10]
  TGI: > 100 µM
[11]
  TGI: 80.9 µM
[12]
  TGI: > 100 µM
[13]
  TGI: > 100 µM
[14]
  TGI: > 100 µM
[15]
  TGI: > 100 µM
[16]
  TGI: > 100 µM
[17]
  TGI: > 100 µM
[58]
  TGI: > 100 µM
[18]
  TGI: > 100 µM
[19]
  TGI: > 100 µM
[20]
  TGI: > 100 µM
[21]
  TGI: > 100 µM
[22]
  TGI: > 100 µM
[24]
  TGI: > 100 µM
[25]
  TGI: > 100 µM
[26]
  TGI: > 100 µM
[27]
  TGI: > 100 µM
[28]
  TGI: > 100 µM
[29]
  TGI: > 100 µM
[30]
  TGI: > 100 µM
[31]
  TGI: > 100 µM
[32]
  TGI: > 100 µM
[33]
  TGI: > 100 µM
[34]
  TGI: > 100 µM
[35]
  TGI: > 100 µM
[36]
  TGI: > 100 µM
[37]
  TGI: > 100 µM
[38]
  TGI: > 100 µM
[39]
  TGI: > 100 µM
[40]
  TGI: > 100 µM
[41]
  TGI: > 100 µM
[42]
  TGI: > 100 µM
[43]
  TGI: > 100 µM
[44]
  TGI: > 100 µM
[45]
  TGI: > 100 µM
[46]
  TGI: > 100 µM
[47]
  TGI: > 100 µM
[49]
  TGI: > 100 µM
[59]
  TGI: > 100 µM
[50]
  TGI: > 100 µM
[51]
  TGI: > 100 µM
[52]
  TGI: > 100 µM
[53]
  TGI: > 100 µM
[54]
  TGI: > 100 µM
[55]
  TGI: > 100 µM
[56]
  TGI: > 100 µM
